Data published in ChEMBL document CHEMBL5154943, “Crystallography-Guided Optimizations of the Keap1-Nrf2 Inhibitors on the Solvent Exposed Region: From Symmetric to Asymmetric Naphthalenesulfonamides” (J Med Chem, 2022).
≈ marks a conversion by molar mass, not a printed value.

Experiments:
[1] = Tmax in Sprague-Dawley rat at 20 mg/kg, IG measured for 24 hrs by LC-MS analysis; assay type: ADME, organism-based; conditions: in vivo, po
[2] = AUC (0 to 24 hrs) in Sprague-Dawley rat at 20 mg/kg, IG measured upto 24 hrs by LC-MS analysis; assay type: ADME, organism-based; parameters: time < 24 hrs, dose 20 mg/kg, route ig; conditions: in vivo, po
[3] = Antiinflammatory activity against LPS-induced mouse peritoneal macrophage assessed as inhibition of TNF alpha level after 4 hrs by ELISA method; assay type: functional, cell-based
[4] = MRT(0 to 24 hrs) in Sprague-Dawley rat at 5 mg/kg, iv measured upto 24 hrs by LC-MS analysis; assay type: ADME, organism-based; conditions: in vivo
[5] = Aqueous solubility of the compound in PBS at pH 2 after 24 hrs by HPLC-UV analysis; assay type: physicochemical
[6] = AUC (0 to 24 hrs) in Sprague-Dawley rat at 5 mg/kg, iv measured upto 24 hrs by LC-MS analysis; assay type: ADME, organism-based; parameters: time < 24 hrs, dose 5 mg/kg, route iv; conditions: in vivo
[7] = AUC(0 to infinity) in Sprague-Dawley rat at 20 mg/kg, IG measured upto 24 hrs by LC-MS analysis; assay type: ADME, organism-based; parameters: dose 20 mg/kg, time < 24 hrs, route ig; conditions: in vivo, po
[8] = system: Peritoneal macrophage; assay: Cytotoxicity against mouse peritoneal macrophages assessed as reduction in cell viability measured after 24 hrs by Cell Titer-Blue assay; assay type: functional
[9] = Antiinflammatory activity against LPS-induced mouse peritoneal macrophage assessed as suppression of NO level pretreated with LPS followed by compound addition and measured after 24 hrs by Griess reagent based assay; assay type: functional, cell-based
[10] = Oral bioavailability in Sprague-Dawley rat at 20 mg/kg measured upto 24 hrs by LC-MS analysis; assay type: ADME, organism-based; conditions: in vivo
[11] = MRT(0 to 24 hrs) in Sprague-Dawley rat at 20 mg/kg, IG measured upto 24 hrs by LC-MS analysis; assay type: ADME, organism-based; conditions: in vivo, po
[12] = MRT(0 to infinity) in Sprague-Dawley rat at 5 mg/kg, iv measured upto 24 hrs by LC-MS analysis; assay type: ADME, organism-based; conditions: in vivo
[13] = AUC(0 to infinity) in Sprague-Dawley rat at 5 mg/kg, iv measured upto 24 hrs by LC-MS analysis; assay type: ADME, organism-based; parameters: dose 5 mg/kg, time < 24 hrs, route iv; conditions: in vivo
[14] = Aqueous solubility of the compound in PBS at pH 7.4 after 24 hrs by HPLC-UV analysis; assay type: physicochemical
[15] = Half life in Sprague-Dawley rat at 20 mg/kg, IG measured upto 24 hrs by LC-MS analysis; assay type: ADME, organism-based; conditions: in vivo, po
[16] = Cmax in Sprague-Dawley rat at 5 mg/kg, iv measured upto 24 hrs by LC-MS analysis; assay type: ADME, organism-based; parameters: dose 5 mg/kg, time < 24 hrs, route iv; conditions: in vivo
[17] = MRT (0 to infinity) in Sprague-Dawley rat at 20 mg/kg, IG measured upto 24 hrs by LC-MS analysis; assay type: ADME, organism-based; conditions: in vivo, po
[18] = Aqueous solubility of the compound in PBS at pH 7 after 24 hrs by HPLC-UV analysis; assay type: physicochemical
[19] = Cmax in Sprague-Dawley rat at 20 mg/kg, IG measured upto 24 hrs by LC-MS analysis; assay type: ADME, organism-based; parameters: dose 20 mg/kg, time < 24 hrs, route ig; conditions: in vivo, po
[20] = Half life in Sprague-Dawley rat at 5 mg/kg, iv measured upto 24 hrs by LC-MS analysis; assay type: ADME, organism-based; conditions: in vivo
[21] = molecular target: Keap1/Nrf2 (Homo sapiens, UniProt Q14145); assay: Inhibition of recombinant N-terminal His6-tagged human Keap1-Nrf2 (322 to 609 residues) (unknown origin) protein-protein interaction expressed in Escherichia coli (DE3) incubated for 60 mins by fluorescence anisotropy assay
Sequence of Keap1/Nrf2 (Q16236 whole entry, the tested form may be a part): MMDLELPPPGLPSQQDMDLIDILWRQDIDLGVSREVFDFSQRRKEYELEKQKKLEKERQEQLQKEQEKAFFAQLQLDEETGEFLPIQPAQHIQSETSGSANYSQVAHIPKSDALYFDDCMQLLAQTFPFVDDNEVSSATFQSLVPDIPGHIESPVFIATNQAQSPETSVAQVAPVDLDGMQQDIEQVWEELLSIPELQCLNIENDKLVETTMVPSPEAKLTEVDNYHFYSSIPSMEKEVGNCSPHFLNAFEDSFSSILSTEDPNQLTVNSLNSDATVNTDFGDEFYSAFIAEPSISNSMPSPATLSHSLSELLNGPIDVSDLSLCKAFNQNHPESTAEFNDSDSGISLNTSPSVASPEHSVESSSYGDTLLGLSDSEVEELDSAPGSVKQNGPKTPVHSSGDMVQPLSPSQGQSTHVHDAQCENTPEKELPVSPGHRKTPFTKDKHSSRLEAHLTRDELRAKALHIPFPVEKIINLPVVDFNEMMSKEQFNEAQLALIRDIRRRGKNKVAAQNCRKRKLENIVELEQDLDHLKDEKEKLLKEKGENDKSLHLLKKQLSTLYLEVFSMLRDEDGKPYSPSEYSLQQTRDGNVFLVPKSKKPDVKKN
Sequence of Keap1/Nrf2 (Q14145 whole entry, the tested form may be a part): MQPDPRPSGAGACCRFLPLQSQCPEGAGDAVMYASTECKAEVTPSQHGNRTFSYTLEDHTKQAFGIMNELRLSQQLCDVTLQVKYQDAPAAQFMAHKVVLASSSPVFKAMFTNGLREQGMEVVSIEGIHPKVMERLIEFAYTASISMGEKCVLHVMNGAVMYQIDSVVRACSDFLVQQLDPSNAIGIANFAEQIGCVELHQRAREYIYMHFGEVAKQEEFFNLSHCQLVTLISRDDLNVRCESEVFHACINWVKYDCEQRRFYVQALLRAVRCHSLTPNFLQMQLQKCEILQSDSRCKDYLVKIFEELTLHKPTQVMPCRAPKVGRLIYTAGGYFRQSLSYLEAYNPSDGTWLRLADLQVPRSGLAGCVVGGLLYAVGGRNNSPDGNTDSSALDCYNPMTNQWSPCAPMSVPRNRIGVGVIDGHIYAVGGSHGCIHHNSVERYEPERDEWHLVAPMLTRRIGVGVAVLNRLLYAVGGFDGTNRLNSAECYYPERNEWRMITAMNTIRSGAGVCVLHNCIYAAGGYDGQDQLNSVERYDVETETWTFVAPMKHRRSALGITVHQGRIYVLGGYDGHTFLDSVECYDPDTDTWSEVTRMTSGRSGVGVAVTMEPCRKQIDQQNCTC

[22] = Tmax in Sprague-Dawley rat at 5 mg/kg, iv measured upto 24 hrs by LC-MS analysis; assay type: ADME, organism-based; conditions: in vivo

## CCN1CCN(CCC(=O)Nc2ccc(S(=O)(=O)N(CC(N)=O)c3ccc(N(CC(N)=O)S(=O)(=O)c4ccc(OC)cc4)c4ccccc34)cc2)CC1
[1]
  Tmax: 1.38 h
[2]
  AUC(0-t) at 24 h: 3060 ng·h/mL
[3]
  EC50: 1140 nM
[4]
  MRT last at 24 h: 4.64 h
[5]
  solubility at 24 h: 902 µg/mL (≈ 1180 µM)
[6]
  AUC(0-t) at 24 h: 4560 ng·h/mL
[7]
  AUC(0-inf): 3700 ng·h/mL
[8]
  CC50: > 100000 nM
[9]
  EC50: 970 nM
[10]
  bioavailability: 19.9%
[11]
  MRT last at 24 h: 6.71 h
[12]
  MRT inf: 5.94 h
[13]
  AUC: 4779.24 ng·h/mL
[14]
  solubility at 24 h: 49.3 µg/mL (≈ 64.4 µM)
[15]
  half-life: 10.9 h
[16]
  Cmax: 2630 ng/mL
[17]
  MRT inf: 14 h
[18]
  solubility at 24 h: 91.1 µg/mL (≈ 119 µM)
[19]
  Cmax: 708 ng/mL
[20]
  t1/2: 4.31 h
[21]
  Kd: 210 nM
[22]
  Tmax: 0.72 h
